From patent US20240368120A1 (Terns Pharmaceuticals, Inc., priority 2023, published 2024)

Target: T1, human GLP-1R receptor (Homo sapiens, UniProt P43220)
T1 construct: expressed in transfected cells
Assay: GLP-1R low expression cell assay (cAMP TR-FRET, CHO-K1_hGLP-1Rlow_clone10 cells)
Type: cell-based
Conditions: for EC50: cAMP TR-FRET, 30 min at 25° C.; for Emax: maximum activation relative to control GLP-1 peptide agonist
Procedure, shortened: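 CHO-K1 cells stably expressing low surface human GLP-1R (clone10), 1,000 cells/well, exposed to 10-point 3-fold compound dilutions for 30 min at 25 °C. cAMP measured by TR-FRET (Eu-cAMP tracer/ULight-anti-cAMP, 15 min). EC50 from Hill fit of duplicate percent activation relative to a parallel GLP-1 control agonist.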

T1 sequence (P43220 24-463): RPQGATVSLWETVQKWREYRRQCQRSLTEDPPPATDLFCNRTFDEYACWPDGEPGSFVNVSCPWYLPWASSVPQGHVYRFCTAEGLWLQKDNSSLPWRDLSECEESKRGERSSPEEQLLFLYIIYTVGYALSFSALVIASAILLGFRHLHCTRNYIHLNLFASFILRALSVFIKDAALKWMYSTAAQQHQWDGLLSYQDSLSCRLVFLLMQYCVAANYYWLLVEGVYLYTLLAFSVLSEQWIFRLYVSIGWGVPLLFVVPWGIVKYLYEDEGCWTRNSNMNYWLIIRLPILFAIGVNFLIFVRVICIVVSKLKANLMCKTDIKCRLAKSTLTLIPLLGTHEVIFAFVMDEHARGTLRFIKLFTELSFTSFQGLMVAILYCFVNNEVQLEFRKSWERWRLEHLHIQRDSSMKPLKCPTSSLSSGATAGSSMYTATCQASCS

| SMILES | EC50 [nM] | Emax [%] |
| --- | --- | --- |
| Cn1c(CN2CCC(c3cccc(OCc4ccc(Cl)cc4F)n3)CC2)nc2c(OC(F)F)cc(C(=O)O)nc21 [Compound 328, 2-((4-(6-((4-Chloro-2-fluorobenzyl)oxy)pyridin-2-yl)piperidin-1-yl)methyl)-7-(difluoromethoxy)-3-methyl-3H-imidazo[4,5-b]pyridine-5-carboxylic acid] | 10 to 100 | > 85 |
| Cn1c(CN2CCC(c3cccc(OCc4ccc(Cl)c5c4OCC5)n3)CC2)nc2c(OC(F)F)cc(C(=O)O)cc21 [Compound 331, 2-((4-(6-((4-Chloro-2,3-dihydrobenzofuran-7-yl)methoxy)pyridin-2-yl)piperidin-1-yl)methyl)-4-(difluoromethoxy)-1-methyl-1H-benzo[d]imidazole-6-carboxylic acid] | 10 to 100 | > 85 |
| Cn1c(CN2CCC(c3cccc4c3O[C@H](c3ccc(Cl)cc3F)CO4)CC2)nc2c(OCCF)cc(C(=O)O)cc21 [Compound 333, (R)-2-((4-(3-(4-chloro-2-fluorophenyl)-2,3-dihydrobenzo[b][1,4]dioxin-5-yl)piperidin-1-yl)methyl)-4-(2-fluoroethoxy)-1-methyl-1H-benzo[d]imidazole-6-carboxylic acid] | 100 to 1000 | > 85 |
| Cn1c(CN2CCC(c3cccc4c3O[C@@H](c3ccc(Cl)cc3F)CO4)CC2)nc2c(OC(F)F)cc(C(=O)O)cc21 [Compound 334, (S)-2-((4-(3-(4-Chloro-2-fluorophenyl)-2,3-dihydrobenzo[b][1,4]dioxin-5-yl)piperidin-1-yl)methyl)-4-(difluoromethoxy)-1-methyl-1H-benzo[d]imidazole-6-carboxylic acid] | 10 to 100 | > 85 |
| Cn1c(CN2CCC(c3cccc4c3O[C@H](c3ccc(Cl)cc3F)CO4)CC2)nc2c(OC(F)F)cc(C(=O)O)cc21 [Compound 335, (R)-2-((4-(3-(4-Chloro-2-fluorophenyl)-2,3-dihydrobenzo[b][1,4]dioxin-5-yl)piperidin-1-yl)methyl)-4-(difluoromethoxy)-1-methyl-1H-benzo[d]imidazole-6-carboxylic acid] | > 1000 | 50 to 85 |
| COc1c(F)c(C(=O)O)cc2nc(CN3CCC(c4cccc(OCc5ccc(C#N)cc5F)n4)CC3)n(C)c12 [Compound 336, 2-((4-(6-((4-Cyano-2-fluorobenzyl)oxy)pyridin-2-yl)piperidin-1-yl)methyl)-6-fluoro-7-methoxy-1-methyl-1H-benzo[d]imidazole-5-carboxylic acid] | > 1000 | < 25 |
| COc1c(F)c(C(=O)O)cc2c1nc(CN1CCC(c3cccc(OCc4ccc(Cl)cc4F)n3)CC1)n2C [Compound 337, 2-((4-(6-((4-Chloro-2-fluorobenzyl)oxy)pyridin-2-yl)piperidin-1-yl)methyl)-5-fluoro-4-methoxy-1-methyl-1H-benzo[d]imidazole-6-carboxylic acid] | 10 to 100 | > 85 |
| COc1c(F)c(C(=O)O)cc2nc(CN3CCC(c4cccc(OCc5ccc(Cl)cc5F)n4)CC3)n(C)c12 [Compound 338, 2-((4-(6-((4-Chloro-2-fluorobenzyl)oxy)pyridin-2-yl)piperidin-1-yl)methyl)-6-fluoro-7-methoxy-1-methyl-1H-benzo[d]imidazole-5-carboxylic acid] | > 1000 | 50 to 85 |
| COc1cc(C(=O)O)c(F)c2c1nc(CN1CCC(c3ccc(F)c(OCc4ccc(C#N)cc4F)c3)CC1)n2C [Compound 339, 2-((4-(3-((4-Cyano-2-fluorobenzyl)oxy)-4-fluorophenyl)piperidin-1-yl)methyl)-7-fluoro-4-methoxy-1-methyl-1H-benzo[d]imidazole-6-carboxylic acid] | 100 to 1000 | > 85 |
| COc1cc(C(=O)O)c(F)c2c1nc(CN1CCC(c3ccc(F)c(OCc4ccc(Cl)cc4F)c3)CC1)n2C [Compound 340, 2-((4-(3-((4-Chloro-2-fluorobenzyl)oxy)-4-fluorophenyl)piperidin-1-yl)methyl)-7-fluoro-4-methoxy-1-methyl-1H-benzo[d]imidazole-6-carboxylic acid] | 10 to 100 | > 85 |
| Cn1c(CN2CCC(c3cccc(OCc4ccc(Cl)cc4F)n3)CC2)nc2ccc(C(=O)O)c(O)c21 [Compound 341, 2-((4-(6-((4-Chloro-2-fluorobenzyl)oxy)pyridin-2-yl)piperidin-1-yl)methyl)-7-hydroxy-1-methyl-1H-benzo[d]imidazole-6-carboxylic acid] | 100 to 1000 | > 85 |
| COc1cc(C(=O)O)cc2c1nc(Cc1ccc(-c3cccc(OCc4ccc(C#N)cc4F)n3)cc1F)n2C [Compound 342, 2-(4-(6-((4-cyano-2-fluorobenzyl)oxy)pyridin-2-yl)-2-fluorobenzyl)-4-methoxy-1-methyl-1H-benzo[d]imidazole-6-carboxylic acid] | < 10 | > 85 |
| Cn1c(CN2CCC(c3cccc(OCc4ccc(Cl)cc4F)n3)CC2)nc2c(OCCO)cc(C(=O)O)cc21 [Compound 343, 2-((4-(6-((4-Chloro-2-fluorobenzyl)oxy)pyridin-2-yl)piperidin-1-yl)methyl)-4-(2-hydroxyethoxy)-1-methyl-1H-benzo[d]imidazole-6-carboxylic acid] | < 10 | > 85 |
| COc1cc(C#N)ccc1COc1cccc(C2CCN(Cc3nc4c(OC)cc(C(=O)O)cc4n3C)CC2)n1 [Compound 344, 2-((4-(6-((4-Cyano-2-methoxybenzyl)oxy)pyridin-2-yl)piperidin-1-yl)methyl)-4-methoxy-1-methyl-1H-benzo[d]imidazole-6-carboxylic acid] | < 10 | > 85 |
| Cn1c(CN2CCC(c3cccc(OCc4ccc(Cl)cc4F)n3)CC2)nc2c(O[C@H]3C[C@H](F)C3)cc(C(=O)O)cc21 [Compound 353, 2-((4-(6-((4-Chloro-2-fluorobenzyl)oxy)pyridin-2-yl)piperidin-1-yl)methyl)-4-((1r,3r)-3-fluorocyclobutoxy)-1-methyl-1H-benzo[d]imidazole-6-carboxylic acid] | 10 to 100 | > 85 |

Now from value to molecule:

| EC50 [nM] | Emax [%] | SMILES |
| --- | --- | --- |
| > 1000 | 50 to 85 | Cn1c(CN2CCC(c3cccc(OCc4ccc(Cl)cc4F)n3)CC2)nc2c(O)c(C(=O)O)ccc21 [Compound 345, 2-((4-(6-((4-Chloro-2-fluorobenzyl)oxy)pyridin-2-yl)piperidin-1-yl)methyl)-4-hydroxy-1-methyl-1H-benzo[d]imidazole-5-carboxylic acid] |
| 10 to 100 | > 85 | O=C(O)c1cc(OCF)c2nc(CN3CCC(c4cccc(OCc5ccc(Cl)cc5F)n4)CC3)n(CF)c2c1 [Compound 346, 2-((4-(6-((4-Chloro-2-fluorobenzyl)oxy)pyridin-2-yl)piperidin-1-yl)methyl)-4-(fluoromethoxy)-1-(fluoromethyl)-1H-benzo[d]imidazole-6-carboxylic acid] |
| > 1000 | 25 to 50 | O=C(O)c1cc(OCF)c2c(c1)nc(CN1CCC(c3cccc(OCc4ccc(Cl)cc4F)n3)CC1)n2CF [Compound 347, 2-((4-(6-((4-Chloro-2-fluorobenzyl)oxy)pyridin-2-yl)piperidin-1-yl)methyl)-7-(fluoromethoxy)-1-(fluoromethyl)-1H-benzo[d]imidazole-5-carboxylic acid] |
| < 10 | > 85 | COc1cc(Cl)ccc1COc1cccc(C2CCN(Cc3nc4c(OC)cc(C(=O)O)cc4n3C)CC2)n1 [Compound 348, 2-((4-(6-((4-Chloro-2-methoxybenzyl)oxy)pyridin-2-yl)piperidin-1-yl)methyl)-4-methoxy-1-methyl-1H-benzo[d]imidazole-6-carboxylic acid] |
| < 10 | > 85 | [2H]C([2H])([2H])Oc1cc(C(=O)O)cc2c1nc(CN1CCC(c3cccc(OCc4ccc(C#N)cc4F)n3)CC1)n2C [Compound 349, 2-((4-(6-((4-Cyano-2-fluorobenzyl)oxy)pyridin-2-yl)piperidin-1-yl)methyl)-4-(methoxy-d3)-1-methyl-1H-benzo[d]imidazole-6-carboxylic acid] |
| 100 to 1000 | > 85 | Cn1c(CN2CCC(c3cccc(OCc4cnc(C#N)cc4F)n3)CC2)nc2c(OC(F)F)cc(C(=O)O)cc21 [Compound 350, 2-((4-(6-((6-Cyano-4-fluoropyridin-3-yl)methoxy)pyridin-2-yl)piperidin-1-yl)methyl)-4-(difluoromethoxy)-1-methyl-1H-benzo[d]imidazole-6-carboxylic acid] |
| 10 to 100 | > 85 | CCC(F)Oc1cc(C(=O)O)cc2c1nc(CN1CCC(c3cccc(OCc4ccc(Cl)cc4F)n3)CC1)n2C (centres unmarked) [Compound 351, 2-((4-(6-((4-Chloro-2-fluorobenzyl)oxy)pyridin-2-yl)piperidin-1-yl)methyl)-4-(1-fluoropropoxy)-1-methyl-1H-benzo[d]imidazole-6-carboxylic acid] |
| 100 to 1000 | > 85 | Cn1c(CN2CCC(c3cccc(OCc4ccc(C#N)cc4F)n3)CC2)nc2c(Oc3ccc(F)cc3)cc(C(=O)O)cc21 [Compound 352, 2-((4-(6-((4-Cyano-2-fluorobenzyl)oxy)pyridin-2-yl)piperidin-1-yl)methyl)-4-(4-fluorophenoxy)-1-methyl-1H-benzo[d]imidazole-6-carboxylic acid] |
| 10 to 100 | > 85 | COc1cc(C#N)ncc1COc1cccc(C2CCN(Cc3nc4c(OC(F)F)cc(C(=O)O)cc4n3C)CC2)n1 [Compound 354] |
| 100 to 1000 | > 85 | Cn1c(CN2CCC(c3ccnnc3OCc3ccc(Cl)cc3F)CC2)nc2c(OC(F)F)cc(C(=O)O)cc21 [Compound 355, 2-((4-(3-((4-Chloro-2-fluorobenzyl)oxy)pyridazin-4-yl)piperidin-1-yl)methyl)-4-(difluoromethoxy)-1-methyl-1H-benzo[d]imidazole-6-carboxylic acid] |
